Data set [1] addresses T1, glucocorticoid receptor (GR) (Homo sapiens, UniProt P04150).
T1 construct: endogenous in cells; host or cells: human kidney epithelial cells
T1 sequence (P04150 1-777): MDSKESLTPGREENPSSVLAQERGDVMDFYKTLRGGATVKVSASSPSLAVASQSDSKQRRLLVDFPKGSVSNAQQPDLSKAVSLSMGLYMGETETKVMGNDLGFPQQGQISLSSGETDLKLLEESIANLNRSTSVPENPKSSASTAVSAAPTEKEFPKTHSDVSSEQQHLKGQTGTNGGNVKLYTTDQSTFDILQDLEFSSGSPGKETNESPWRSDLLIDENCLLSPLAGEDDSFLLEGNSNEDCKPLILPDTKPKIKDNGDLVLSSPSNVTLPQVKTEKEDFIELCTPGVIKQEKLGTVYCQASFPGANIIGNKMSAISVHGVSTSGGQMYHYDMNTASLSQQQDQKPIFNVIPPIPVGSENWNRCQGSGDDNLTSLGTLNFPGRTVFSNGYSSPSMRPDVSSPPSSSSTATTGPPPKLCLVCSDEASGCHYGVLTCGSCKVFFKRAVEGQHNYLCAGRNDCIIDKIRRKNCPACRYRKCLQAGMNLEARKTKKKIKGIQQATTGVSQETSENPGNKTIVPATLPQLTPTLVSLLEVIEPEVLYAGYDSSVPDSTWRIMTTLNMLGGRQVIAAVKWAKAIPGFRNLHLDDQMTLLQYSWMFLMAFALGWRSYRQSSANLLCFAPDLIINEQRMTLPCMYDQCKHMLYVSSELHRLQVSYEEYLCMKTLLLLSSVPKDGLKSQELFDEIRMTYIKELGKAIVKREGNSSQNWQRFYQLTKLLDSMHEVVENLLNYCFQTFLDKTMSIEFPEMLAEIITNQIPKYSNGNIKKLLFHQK
Put plainly: GR reporter antagonist assay (inhibition of Dexamethasone-induced luminescence). The class given is cell-based. The conditions noted are these: inhibition of Dex-induced luminescence. How it is done:
(§1) The androgen and glucocorticoid hormones elicit divergent and often opposing effects in cells, tissues, and animals. […] CB-03-06 GR antagonist and agonist activities were tested on an in vitro assay. Briefly, human kidney epithelial cells were transfected with DNA construct containing GR binding sites linked to luminescent based reporter molecule. After 24 hours, cells were treated under antagonist or agonist modes. After an additional 24 hours, luminescence which is proportional to GR agonist transcriptional activity was quantitated.
Antagonist Assay was based on inhibition of luminescence induced by Dexamethasone (Dex).
The antagonist activity of CB-03-06 was compared to a known GR antagonist, Mifepristone (also called RU486) as shown in FIG. 7.

In a further data set the test system is 22Rv1. Put plainly: In vitro proliferation, larger panel (Example 14). In kind it is cell-based. The conditions noted are these: Homo sapiens, Table III. The source says:
Results are depicted in Table III.

Data set [2] is described as follows: In vitro metabolism in plasma. The class given is in vitro ADME. The conditions noted are these: human plasma, 37 C, through 8 hours. How it is done:
(§2) To obtain some insight on the metabolism of CB-03-06 in human and rat plasma, a specific assay was designed. Briefly, the compound was incubated at different time points in human and rat plasma at 37 C. After incubation, the samples were tested for presence of the intact compound by liquid chromatography.

Data set [3] is described as follows: In vitro metabolism in plasma. The conditions noted are these: 37 C. In kind it is in vitro ADME, rat. How it is done: as §2
The target of another data set is T2, wild type AR (AR-LBD) (Rattus norvegicus, UniProt P15207).
T2 construct: purchased Life Technologies
Put plainly: Polar Screen fluorescence polarization competition assay. In kind it is binding.

Data set [4] in a line: In vivo pharmacokinetics in plasma. The settings on record: mice; for AUC: mouse, plasma. How it is done: The pharmacokinetic of CB-03-06 was evaluated in plasma of mice after intravenous (iv), subcutaneous (SC) and oral administration (PO).
Mice (3 per group) were administered with the following doses and blood was collected at the indicated times. Plasma samples were analyzed by HPLC-MS/MS.

The next data set deals with MiaPaca2. Put plainly: Annexin V / propidium iodide apoptosis flow cytometry. The settings on record: 24 hours, control 12%. The class given is cell-based. How it is done: CB-03-06 was evaluated to determine if the mechanism of cytotoxicity on cancer cell lines was mediated by apoptosis and cell cycle arrest. Cancer cell lines were seeded in 6-well flat bottom plates. After 24 hours, test compounds or DMSO vehicle (negative control) were added. After an additional 24 hours, cells were scraped and stained with fluorescein conjugated Annexin V and propidium iodide, and analyzed by flow cytometry.
(In flow cytometry, cells or beads pass a laser one at a time.)

The subject of another data set is MDA-MB-231. Put plainly: In vitro proliferation / cytotoxic assay on breast cancer cells (Examples 14, 25). The class given is cell-based. The settings on record: Homo sapiens. How it is done:
Data shown in Table I were fitted through sigmoidal dose response curves and analyzed using Prizm statistical.
For the cytotoxic assay, cells were seeded in 96-well flat bottom culture plates in media containing charcoal stripped serum. After 24 hours, test compounds were added to the cells. DMSO was used as the vehicle negative control and RU486 as the positive control. After 72 hour incubation, cells were harvested and lysed to determine cell viability using the Cell Titer Glow assay.

Data set [5] relates to caspases 8, 9, 3/7 in MiaPaca2 cells. The experiment in a line: Caspase 8, 9 and 3/7 activity. In kind it is cell-based.
Method: To better analyze the phenomenon, the enzymatic activity of Caspase 8 (initiator caspase for Extrinsic Pathway) and Caspase 9 (initiator caspase for Intrinsic Pathway) and of Caspases 3 and 7 (effector caspases) were measured.
Gemcitabine (a known pancreatic cancer chemotherapeutic agent) and DMSO were used as positive and negative controls, respectively. There were three incubation time points: 8 hours, 24 hours, and 48 hours. After each time point, cells were lysed in multiplex buffer containing the caspase 3/7 substrate combined with either caspase 8 or caspase 9 reagents, which contain stable luciferase in proprietary buffers. The lysates were transferred to white opaque 96-well plates before measuring luminescence on a Tecan Safire instrument. Parallel plates treated identically were used to determine cell viability. All caspase activities were corrected for the number of viable cells.
The next data set has as its system LNCaP. The experiment in a line: Cell viability of the cells of the PSA assay. The settings on record: Homo sapiens, 48 h, read-out: cell viability IC50. In kind it is cell-based. How it is done:
(§3) Prostate-specific antigen, or PSA, is a protein produced by cells of the prostate gland. The PSA test measures the level of PSA in a person's blood. The blood level of PSA is often elevated in men with prostate cancer and it used as surrogate marker to test prostate cancer progression in human population. […] LNCaP cells were seeded in 96-well flat bottom culture plates in media containing charcoal stripped serum with or without 10 nM DHT. […] After 48 hours incubation with test compounds, supernatants were harvested and tested with an Elisa assay for PSA and the same cells were lysed for cell viability assessment.

For data set [6], the system named is PSA secretion from LNCaP cells. The experiment in a line: PSA secretion Elisa. The class given is cell-based. The conditions noted are these: Homo sapiens, 48 h, read-out: inhibition of PSA secretion IC50. How it is done:
as §3

The subject of data set [7] is LNCaP prostate cancer xenograft. The experiment in a line: Human prostate cancer xenograft in nude mice, oral dosing. The conditions noted are these: oral 100 mg/Kg daily 28 days. The class given is in vivo. The method, then:
3×10^6 LNCaP cells suspended in matrigel were subcutaneously injected (on the right flank) into 6 week old male athymic nude mice. Tumors were measured as described above. Treatment with CB-03-06 and controls compounds was initiated after the tumor had reached 50 mm^3. […] Oral dosing was daily (100 mg/Kg in 200 microL/mouse) for 28 consecutive days. Results were plotted as average change in tumor volume relative to the start of treatment.
For orientation: In xenograft studies the graft and the host belong to different species.

The target of data set [8] is T1, glucocorticoid receptor (GR). The experiment in a line: GR reporter agonist assay (induction of luminescence). The class given is cell-based. The conditions noted are these: agonist mode. How it is done:
as §1
Agonist Assay—was based on induction of luminescence by CB-03-06
The agonist activity of CB-03-06 was compared to a RU486 which is known to not have agonist activity.

Usually AUC stands for concentration integrated over time. A low value points to less exposure.

Like-named read-outs stand apart in the source and are kept apart here.

T2 sequence (P15207 651-882 limits assumed): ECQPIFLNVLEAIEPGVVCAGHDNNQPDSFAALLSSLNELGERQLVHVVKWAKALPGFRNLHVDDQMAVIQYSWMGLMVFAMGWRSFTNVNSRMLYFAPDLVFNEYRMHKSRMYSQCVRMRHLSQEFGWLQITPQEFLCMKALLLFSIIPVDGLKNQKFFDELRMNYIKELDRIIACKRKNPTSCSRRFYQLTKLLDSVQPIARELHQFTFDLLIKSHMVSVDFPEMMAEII
Method for wild type AR (AR-LBD): Briefly, the AR is added to a fluorescent androgen ligand (Fluormone™ AL Green) to form an AR-LBD complex. Competitors displace the fluorescent Fluormone™ AL Green ligand from the AR-LBD causing the fluorescent ligand to tumble rapidly during its fluorescence lifetime, resulting in a low polarization value. Non competitors will not displace the fluorescent ligand from the complex, so the polarization value remains high. The shift in polarization value in the presence of test compounds is used to determine relative affinity of test compounds for AR-LBD.

`C[C@]12CCC(=O)C=C1CC[C@@H]1[C@@H]2CC[C@@]2(C)[C@H]1CC[C@]2(OC(=O)c1ccccc1)C(=O)CO` [CB-03-06, cortexolone 17α-benzoate]: the “GR antagonist potency, times less than RU486” value in [1] is listed as 100 times. Further, the IC50 was 25 µM in the data set on 22Rv1; 2.6 µM at wild type AR (AR-LBD); 46 µM in the data set with MDA-MB-231 (MDA-MB-231, 72 h); 46 µM in the data set with MDA-MB-231 (MDA-MB-231, read-out: in vitro proliferation IC50); 12 µM in the data set with LNCaP; 4 µM in data set [6]. The “intact compound, % of initial concentration” value is “over 90%” in [2] and “over 90%” in data set [3] (rat plasma, through 8 hours). The “degradation in rat compared to human plasma” value in [3] was “degrades faster in rat compared to human plasma”. Moreover, the “body exposure relative to subcutaneous administration” value was determined as 50% in data set [4] (intravenously) and 17% in data set [4] (orally). The AUC was 276 ng·h/mL in data set [4] (PO 40 mg/kg), 1620 ng·h/mL in data set [4] (SC 40 mg/kg) and 896 ng·h/mL in data set [4] (iv 20 mg/kg). In addition, in the data set on MiaPaca2, the “cells in apoptosis (early and late)” value turned out to be 56 % cells. Further, the “caspase 8 and 9 activity, increase compared to the control” value in data set [5] (20 or 50 μM, evident after 8 hours) was at most 7 fold. Moreover, the “Caspase 3/7 induction” value in data set [5] (48 hour incubation) was “induced by CB-03-06 at high level”. Besides, in [7], the “anti-tumor activity, change in tumor volume” value was “strong anti-tumor activity against prostate cancer”. The “GR agonist activity plateau” value in data set [8] was 45 % of Dex maximum. The “concentration activating the GR to the same extent” value in [8] (CB-03-06 compared with Dex) amounted to 14 nM.

The values above are taken from patent US10231980B2, “Cortexolone 17alpha-benzoate for use in the treatment of tumours” (COSMO TECHNOLOGIES LTD., priority 2014, dated 2019).
